Experimental data taken from patent US4122077A, “Somatostatin analogs” (American Home Products Corporation, priority 1977, dated 1978).
Where “and” joins values, the source holds several entries; their conditions need not be identical. Equal entries are not always repeated. Where a SMILES comes first, the peptide text is derived from it. Bridges are numbered along the chain shown (N, C = ends). [ ]: non-standard residue; d: D form.

Legend:
[1] = tested on: growth hormone; assay: Suppression of growth hormone, glucagon and insulin (arginine-stimulated, nembutal rats): GH; type: in vivo
Procedure: (§1) Albino male rats are arranged in three groups (nine rats/group) and injected i.p. with nembutal at 50mg/kg. 15 minutes after the nembutal injection they are injected s.c. according to group with (a) test compound, typically 10-2000 μg/kg.; (b) SRIF 200 μg/kg.; or (c) physiological saline. 10 minutes later 0.5 ml. of arginine (300 mg/ml., pH 7.2) is injected into the heart. The rats are decapitated 5 minutes after receiving the arginine, and the blood is collected into Trasylol-EDTA. Appropriate aliquots are then assayed for growth hormone, glucagon and insulin. […] Comparisons between control and experimental values are statistically evaluated by the analysis of variants method and statistical significance (p) at 0.05 or lower is used as the index of activity.

[2] = tested on: insulin; assay: Suppression of growth hormone, glucagon and insulin (arginine-stimulated, nembutal rats): insulin; type: in vivo; settings: arginine challenge
Procedure: as §1

[3] = tested on: glucagon; assay: Suppression of growth hormone, glucagon and insulin (arginine-stimulated, nembutal rats): glucagon; type: in vivo; settings: arginine challenge
Procedure: as §1

[4] = tested on: growth hormone (GH); assay: Suppression of growth hormone (duration of activity after sc injection); type: in vivo, rats
Procedure: A subcutaneous (sc) injection of peptide solubilized or suspended in physiological saline, is given to Charles River CD® nonfasted male rats. Matched saline control solution sc injected rats serve as control animals so that every experimental rat is paired with a control rat. The rats are kept in separate cages and 20 minutes before the end of the test time period they are given an intraperitoneal (i.p.) injection of Nembutal® at a dose of 50 mg/kg. Blood samples are obtained by cardiac puncture and the plasma separated for the radioimmunoassay of growth hormone (GH) concentration (ng/ml.). Time periods after injection of 2, 4, 5, and 6 hours are generally used to test the duration of the activity of the peptide to suppress circulating peripheral GH levels. Comparisons between control and experimental GH values at each time are evaluated by the Student "t" test and statistical significance (p) at the 0.05 level or lower is used as the index of activity.

[5] = 100 μg/kg. s.c., arginine challenge (table 5)

Structure (SMILES) | GH [1, 5] | Insulin ([2]; 100 μg/kg. s.c.) | Glucagon ([3]; 100 μg/kg. s.c.) | GH, 2 Hours ([4]; 1000 μg/kg. sc, rats) | GH, 4 Hours ([4]; 1000 μg/kg. sc, rats) | Insulin ([2]; 200 μg/kg. s.c.) | other results
C[C@@H](O)[C@@H]1NC(=O)[C@H](Cc2ccccc2)NC(=O)[C@H]([C@@H](C)O)NC(=O)[C@H](CCCCN)NC(=O)[C@@H](Cc2c[nH]c3ccccc23)NC(=O)[C@H](Cc2ccccc2)NC(=O)[C@H](Cc2ccccc2)NC(=O)[C@@H](Cc2c[nH]c3ccccc23)NC(=O)[C@@H](CCCNC(=N)N)NC(=O)[C@@H](N)CSSC[C@@H](C(=O)O)NC(=O)[C@H](CO)NC1=O [D, L-Cysteinyl-D-Arginyl-D-Tryptophyl-L-Phenylalanyl-L-Phenylalanyl-D-Tryptophyl-L-Lysyl-L-Threonyl-L-Phenylalanyl-L-Threonyl-L-Seryl-L-Cysteine Cyclic (1-12)-Disulfide] (H-C[dR][dW]FF[dW]KTFTSC-OH; disulfide 1-12) | 21 ± 2 | 35 ± 2 μU/ml. | 53 ± 9 pg/mL | 28 ± 3 ng/mL | 11 ± 2 ng/mL | – | –
C[C@@H](O)[C@@H]1NC(=O)[C@H](Cc2ccccc2)NC(=O)[C@H]([C@@H](C)O)NC(=O)[C@H](CCCCN)NC(=O)[C@@H](Cc2c[nH]c3ccccc23)NC(=O)[C@H](Cc2ccccc2)NC(=O)[C@H](Cc2ccccc2)NC(=O)[C@@H](CCC(=O)O)NC(=O)[C@@H](Cc2ccc(O)cc2)NC(=O)[C@@H](N)CSSC[C@@H](C(=O)O)NC(=O)[C@H](CO)NC1=O [J, L-Cysteinyl-D-Tyrosyl-D-Glutamyl-L-Phenylalanyl-L-Phenylalanyl-D-Tryptophyl-L-Lysyl-L-Threonyl-L-Phenylalanyl-L-Threonyl-L-Seryl-L-Cysteine Cyclic (1-12)-Disulfide] (H-C[dY][dE]FF[dW]KTFTSC-OH; disulfide 1-12) | 128 ± 24 | 263 ± 28 μU/ml. | 45 ± 4 pg/mL | 311 ± 68 ng/mL | 179 ± 39 ng/mL | – | –
C[C@@H](O)[C@@H]1NC(=O)[C@H](CCCCN)NC(=O)[C@@H](Cc2c[nH]c3ccccc23)NC(=O)[C@H](Cc2ccccc2)NC(=O)[C@H](Cc2ccccc2)NC(=O)[C@@H](Cc2ccc(O)cc2)NC(=O)[C@@H](CCCNC(=N)N)NC(=O)[C@@H](N)CSSC[C@H](C(=O)O)NC(=O)[C@H](CO)NC(=O)[C@H]([C@@H](C)O)NC(=O)[C@H](Cc2ccccc2)NC1=O [H, L-Cysteinyl-D-Arginyl-D-Tyrosyl-L-Phenylalanyl-L-Phenylalanyl-D-Tryptophyl-L-Lysyl-L-Threonyl-L-Phenylalanyl-L-Threonyl-L-Seryl-D-Cysteine Cyclic (1-12)-Disulfide] (H-C[dR][dY]FF[dW]KTFTS[dC]-OH; disulfide 1-12) | – | – | – | 75 ± 4 ng/mL | 144 ± 21 ng/mL | – | GH ([1]; 25 μg/kg. s.c., arginine challenge (table 5)): 23 ± 4; Insulin ([2]; 25 μg/kg. s.c.): 128 ± 11 μU/ml.; Glucagon ([3]; 25 μg/kg. s.c.): 56 ± 6 pg/mL
C[C@@H](O)[C@@H]1NC(=O)[C@H](CCCCN)NC(=O)[C@@H](Cc2c[nH]c3ccccc23)NC(=O)[C@H](Cc2ccccc2)NC(=O)[C@H](Cc2ccccc2)NC(=O)[C@@H](Cc2c[nH]c3ccccc23)NC(=O)[C@@H](Cc2ccc(O)cc2)NC(=O)[C@@H](N)CSSC[C@H](C(=O)O)NC(=O)[C@H](CO)NC(=O)[C@H]([C@@H](C)O)NC(=O)[C@H](Cc2ccccc2)NC1=O [Compound I, L-Cysteinyl-D-Tyrosyl-D-Tryptophyl-L-Phenylalanyl-L-Phenylalanyl-D-Tryptophyl-L-Lysyl-L-Threonyl-L-Phenylalanyl-L-Threonyl-L-Seryl-D-Cysteine Cyclic (1-12)-Disulfide] (H-C[dY][dW]FF[dW]KTFTS[dC]-OH; disulfide 1-12) | – | – | – | 49 ± 5 ng/mL | 86 ± 11 ng/mL | 236 ± 27 μU/ml. | GH ([1]; 200 μg/kg. s.c., arginine challenge (table 5)): 57 ± 14; Glucagon ([3]; 200 μg/kg. s.c.): 13 ± 2 pg/mL
C[C@@H](O)[C@@H]1NC(=O)[C@H](CCCCN)NC(=O)[C@@H](Cc2c[nH]c3ccccc23)NC(=O)[C@H](Cc2ccccc2)NC(=O)[C@H](Cc2ccccc2)NC(=O)[C@@H](CCCNC(=N)N)NC(=O)[C@@H](Cc2ccc(O)cc2)NC(=O)[C@@H](N)CSSC[C@H](C(=O)O)NC(=O)[C@H](CO)NC(=O)[C@H]([C@@H](C)O)NC(=O)[C@H](Cc2ccccc2)NC1=O [F, L-Cysteinyl-D-Tryrosyl-D-Arginyl-L-Phenylalanyl-L-Phenylalanyl-D-Tryptophyl-L-Lysyl-L-Threonyl-L-Phenylalanyl-L-Threonyl-L-Seryl-D-Cysteine Cyclic (1-12)-Disulfide] (H-C[dY][dR]FF[dW]KTFTS[dC]-OH; disulfide 1-12) | 11 ± 3 | 103 ± 24 μU/ml. | 24 ± 5 pg/mL | 113 ± 34 ng/mL | 99 ± 11 ng/mL | – | –
C[C@@H](O)[C@@H]1NC(=O)[C@H](Cc2ccccc2)NC(=O)[C@H]([C@@H](C)O)NC(=O)[C@H](CCCCN)NC(=O)[C@@H](Cc2c[nH]c3ccccc23)NC(=O)[C@H](Cc2ccccc2)NC(=O)[C@H](Cc2ccccc2)NC(=O)[C@@H](Cc2ccc(O)cc2)NC(=O)[C@@H](Cc2c[nH]cn2)NC(=O)[C@@H](N)CSSC[C@@H](C(=O)O)NC(=O)[C@H](CO)NC1=O [C, L-Cysteinyl-D-Histidyl-D-Tyrosyl-L-Phenylalanyl-L-Phenylalanyl-D-Tryptophyl-L-Lysyl-L-Threonyl-L-Phenylalanyl-L-Threonyl-L-Seryl-L-Cysteine Cyclic (1-12)-Disulfide] (H-C[dH][dY]FF[dW]KTFTSC-OH; disulfide 1-12) | – | – | – | 34 ± 1 ng/mL | 33 ± 2 ng/mL | 254 ± 31 μU/ml. and 273 ± 36 μU/ml. | GH ([1]; 10 μg/kg. s.c., arginine challenge (table 5)): 149 ± 23; Insulin ([2]; 10 μg/kg. s.c.): 252 ± 41 μU/ml.; Glucagon ([3]; 10 μg/kg. s.c.): 165 ± 13 pg/mL; GH, 5 Hours ([4]; 1000 μg/kg. sc, rats, 5 hours): 51 ± 8 ng/mL; GH, 6 Hours ([4]; 1000 μg/kg. sc, rats, 6 hours): 36 ± 3 ng/mL; GH, 7 Hours ([4]; 1000 μg/kg. sc, rats, 7 hours): 37 ± 5 ng/mL; GH, 8 Hours ([4]; 1000 μg/kg. sc, rats, 8 hours): 37 ± 6 ng/mL
C[C@@H](O)[C@@H]1NC(=O)[C@H](Cc2ccccc2)NC(=O)[C@H]([C@@H](C)O)NC(=O)[C@H](CCCCN)NC(=O)[C@@H](Cc2c[nH]c3ccccc23)NC(=O)[C@H](Cc2ccccc2)NC(=O)[C@H](Cc2ccccc2)NC(=O)[C@@H](Cc2c[nH]c3ccccc23)NC(=O)[C@@H](Cc2ccc(O)cc2)NC(=O)[C@@H](N)CSSC[C@@H](C(=O)O)NC(=O)[C@H](CO)NC1=O [B, L-Cysteinyl-D-Tyrosyl-D-Tryptophyl-L-Phenylalanyl-L-Phenylalanyl-D-Tryptophyl-L-Lysyl-L-Threonyl-L-Phenylalanyl-L-Threonyl-L-Seryl-L-Cysteine Cyclic (1-12)-Disulfide] (H-C[dY][dW]FF[dW]KTFTSC-OH; disulfide 1-12) | – | 170 ± 15 μU/ml. | 5 ± 1 pg/mL | – | – | 239 ± 17 μU/ml. | GH ([1]; 10 μg/kg. s.c., 15 minutes after dose, arginine challenge): 125 ± 26 ng/mL; GH ([1]; 100 μg/kg. s.c., 15 minutes after dose, arginine challenge): 43 ± 7 ng/mL; GH ([1]; 500 μg/kg. s.c., 15 minutes after dose, arginine challenge): 38 ± 6 ng/mL; Insulin ([2]; 10 μg/kg. s.c.): 162 ± 13 μU/ml.; Insulin ([2]; 300 μg/kg. s.c.): 153 ± 9 μU/ml.; Insulin ([2]; 500 μg/kg. s.c.): 116 ± 8 μU/ml.; Glucagon ([3]; 10 μg/kg. s.c.): 36 ± 4 pg/mL; Glucagon ([3]; 200 μg/kg. s.c.): 44 ± 9 pg/mL; Glucagon ([3]; 300 μg/kg. s.c.): 38 ± 8 pg/mL; Glucagon ([3]; 500 μg/kg. s.c.): 18 ± 4 pg/mL; plasma growth hormone (GH) concentration, 2 Hr. ([4]; 1 mg/kg. sc, nonfasted male rats, 2 Hr. after injection): 111 ± 14 ng/mL; plasma growth hormone (GH) concentration, 4 Hr. ([4]; 1 mg/kg. sc, nonfasted male rats, 4 Hr. after injection): 67 ± 14 ng/mL; plasma growth hormone (GH) concentration, 5 Hr. ([4]; 1 mg/kg. sc, nonfasted male rats, 5 Hr. after injection): 151 ± 18 ng/mL; plasma growth hormone (GH) concentration, 2 Hr. (second column headed 2 Hr.) ([4]; 1 mg/kg. sc, nonfasted male rats, second 2 Hr. column of table 3): 133 ± 34 ng/mL
